Consider 32 molecules from patent US12492210B2, “Tricyclic compounds and their use” (HUTCHISON MEDIPHARMA LIMITED, priority 2019, dated 2025).

One assay deals with T1, MAPK1(ERK2) enzyme (Homo sapiens, UniProt P28482).
T1 construct: purchased Invitrogen PV3313
Kind of assay: Z-Lyte Kinase Assay of ERK2. The assay is classed as biochemical. The settings on record: read-out: Example 18 IC50. The method, then:
Example 18: Z-Lyte Kinase Assay of ERK2
1. Materials and Reagents:
2. Reaction Steps: Plate Map
3. Solution Preparation • 1) 1.33× Kinase Buffer: Dilute 5× Kinase Buffer to 1.33× with ddH2O • 2) 4× Test Compounds: Serially dilute the test compounds to 4 folds of the concentrations desired, keeping the DMSO concentration at 8%. The final concentrations are 1, 0.33, 0.11, 0.037, 0.012, 0.004, 0.0014, 0.00046 μM, and the final concentration of DMSO is 2%. • 3) Kinase/Peptide Mixture (P/K solution): Prepare Kinase/Peptide Mixture by diluting the kinase to 0.6 μg/ml and the Z-LYTE™ Ser/Thr3 peptide to 4 μM in 1.33× Kinase Buffer. Mix gently by pipetting. • 4) Phospho-peptide Solution (PP solution): Add 0.4 μl of Z-LYTE™ Ser/Thr3 Phospho-peptide to 99.6 μl of 1.33× Kinase Buffer. • 5) ATP Solution: Prepare ATP Solution by diluting the 10 mM of ATP in 1.33× Kinase Buffer to 100 μM. • 6) Development Solution: Dilute Development Reagent A with Development Buffer as 1:1024. 4. Reaction • 1) Kinase reaction (10 μl of Volume) • a. In a 384-well plate, add 2.5 μl of 4× test Cpds to each well except C1, C2, C3 wells Add 2.5 μl of 8% DMSO to C1, C2, C3 wells • b. Put the plate on ice • c. Add 5 μl of P/K mixture to each test Cpd wells and C1, C2 wells • d. Add 5 μl of PP Solution to C3 well • e. Add 2.5 μl of 1.33× kinase buffer to C1 and C3 wells • f. Add 2.5 μl of 4×ATP Solution to each test Cpd wells and C2 well, respectively. Shake the plate for 30 Sec and centrifuge (1500 rpm, 1 min) • g. Seal the plate to protect from the light and incubate the plate for 1 hour at RT (25-30° C.) • 2) Development reaction • a. Add 5 μl of the Development solution to all wells • b. Shake the plate for 30 sec and centrifuge (1500 rpm, 1 min) • c. Seal the plate to protect from the light and incubate the plate for 1 hour at RT (25-30° C.) • 3) Stop and read • a. Add 5 μl of the Stop reagent to all wells • b. Shake the plate for 30 sec and centrifuge (1500 rpm, 1 min) • c. Measure the value of coumarin (Ex400 nm, Em445 nm) and fluorescein (Ex400 nm, Em520 nm), respectively. 5. Data Analysis Emission Ratio(ER)=Coumarin Emission (445 nm)/Fluorescein Emission (520 nm) % Phosphorylation=1−[ER×C3520nm−C3445nm]/[(C1445nm−C3445nm)+ER×(C3520nm−C1520nm)] Inhibition rate (IR)=1−% Photest Cpd% PhoC2 6. IC50 Value: determine IC50 with add-in software for Microsoft Excel, XLfit™ (version 2.0) from ID Business Solutions (Guildford, UK)

The subject of assay [1] is p-RSK (Thr359) in colo205 cells. Kind of assay: p-RSK (Thr359) Acumen Assay in Colo205. It is filed as cell-based. The note with it: Homo sapiens, COLO 205, 1 hour compound incubation, read-out: Example 19 IC50. The procedure:
Example 19: p-RSK (Thr359) Acumen Assay in Colo205
• Phospho-p90RSK (Thr359) (D1E9) Rabbit mAb: cell signal, #8753 • Alexa Fluor® 488 donkey anti-rabbit IgG: invitrogen, #A-21206 • Propidium Iodide: Sigma, #p4170 • 4% Paraformaldehyde: SCRC, #DF021 • 10% Triton X-100: PIERCE, #28314 • 96-well plate (black with clear bottom): BD, #354640 • Acumen® eX3 (A Multilaser Microplate Cytometer For Enhanced High Content Screening): TTP LabTech 3. Acumen Assay Protocol • Seed 4000 cells in 100 μl 10% FBS/well into 96-well plate, incubate at 37° C., 5% CO2, overnight. • Dilute the compound to 3, 1, 0.33, 0.11, 0.037, 0.012, 0.004, 0.001 μM, keeping the DMSO concentration at 5%. Add 10 μl of diluted compound per well and incubate at 37° C., 5% CO2 for 1 hour. • Add 100 μl of 4% pre-warmed Paraformaldehyde (2% final), and incubate for 45 min at room temperature. • Remove paraformaldehyde solutions. Add 100 μl of ice-cold 0.1% Triton to fixed cells at room temperature for 30 min. • Wash twice with 150 μl PBS and incubate with 100 μl blocking buffer (1% BSA, in PBS) for 2˜3 hours at room temperature, seal the plate. • Wash once with PBS and incubate with 35 μl p-RSK (Thr359) (1:1000 dilution) overnight at 4° C. Seal the plate. • Wash twice with PBS and incubate for 1.5 hours at room temperature with 35 μl of Alexa Fluor® 488 donkey anti-rabbit IgG at a 1:1,000 dilution in antibody dilution buffer (0.1% BSA, in PBS). Cover plate in foil to keep out of light. • Wash twice with 150 μl PBS. Add 35 μl of 1.5 μM Propidium Iodide stock to each well to determine cell number, seal the plate. • Incubate at room temperature for 30 min. Load the plate into the Acumen Explorer and scan with the appropriate instrument settings. 4. Data Analysis
[formula] Note: • Percentagecompound well represents the positive percentage of cells treated by compound. • Percentagemin well represents the positive percentage of cells treated with 3 uM GDC0994. • Percentagemax well represents the positive percentage of cells without compounds treatment. 5. IC50 Value: determine IC50 with add-in software for Microsoft Excel, XLfit™ (version 2.0) from ID Business Solutions (Guildford, UK)

T1 sequence (P28482 whole entry): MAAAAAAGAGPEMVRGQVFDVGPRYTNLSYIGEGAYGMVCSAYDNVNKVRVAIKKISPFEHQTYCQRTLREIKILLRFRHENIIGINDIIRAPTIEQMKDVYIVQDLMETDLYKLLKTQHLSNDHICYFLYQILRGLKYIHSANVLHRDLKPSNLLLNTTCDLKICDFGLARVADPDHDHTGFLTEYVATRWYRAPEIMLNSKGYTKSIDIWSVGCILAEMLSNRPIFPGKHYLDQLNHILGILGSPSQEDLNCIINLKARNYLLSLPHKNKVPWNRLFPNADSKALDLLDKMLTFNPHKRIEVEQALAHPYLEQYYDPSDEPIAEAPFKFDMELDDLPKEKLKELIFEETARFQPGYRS

As a reminder, the IC50 is the concentration needed to halve the response being measured. With `Cc1cnc(Nc2ccnn2C)nc1-c1cc2n(c1)C[C@H](C)n1c-2nnc1C(F)(F)c1cc(F)ccc1F` [Compound 134], the IC50 on MAPK1(ERK2) enzyme was 5 to 10 nM; in assay [1], no more than 100 nM.

In the case of `Cn1nccc1Nc1cc(-c2cc3n(c2)C[C@H](CF)n2c-3nnc2C(F)(F)c2ncccc2F)c(Cl)cn1` [Compound 194], the IC50 is no more than 5 nM at MAPK1(ERK2) enzyme and no more than 100 nM in assay [1].

Consider `Cc1cnc(Nc2ccnn2C)cc1-c1cc2n(c1)C[C@H](CF)n1c-2nnc1C(F)(F)n1nccc1Cl` [Compound 151], for which the concentration for half-maximal inhibition (IC50) on MAPK1(ERK2) enzyme was no more than 5 nM; in assay [1], no more than 100 nM.

As to `Cc1cnc(Nc2ccnn2C)cc1-c1cc2n(c1)CC1(CC1)Cn1c-2nnc1C1(C(F)(F)F)CCC1` [Compound 258], the half-inhibitory concentration (IC50) was no more than 5 nM at MAPK1(ERK2) enzyme and no more than 100 nM in assay [1].

For `Cn1nccc1Nc1cc(-c2cc3n(c2)C[C@H](CF)n2c-3nnc2C(F)(F)c2ccccc2F)c(F)cn1` [Compound 145], the IC50 was no more than 5 nM on MAPK1(ERK2) enzyme and no more than 100 nM in assay [1].

As for `Cn1nccc1Nc1cc(-c2cc3n(c2)CCn2c(Cc4ccccc4F)nnc2-3)c(Cl)cn1` [Compound 9], the IC50 at MAPK1(ERK2) enzyme is no more than 5 nM; in assay [1], no more than 100 nM.

Take `Cn1nccc1Nc1cc(-c2cc3n(c2)C[C@H](CF)n2c-3nnc2C(F)(F)c2ccccn2)c(Cl)cn1` [Compound 141]: the 50% inhibitory concentration (IC50) on MAPK1(ERK2) enzyme is no more than 5 nM; in assay [1], no more than 100 nM.

For the molecule `C[C@H]1Cn2cc(-c3nc(Nc4ccnn4C)ncc3F)cc2-c2nnc(C(F)(F)c3ccccc3F)n21` [Compound 97], the IC50 on MAPK1(ERK2) enzyme was 5 to 10 nM; in assay [1] it was no more than 100 nM.

With `Cn1nccc1Nc1cc(-c2cc3n(c2)C[C@H](CF)n2c(Cc4c(F)cccc4F)nnc2-3)c(Cl)cn1` [Compound 139], the IC50 was no more than 5 nM on MAPK1(ERK2) enzyme and no more than 100 nM in assay [1].

For the molecule `COc1cc(Nc2ncc(C)c(-c3cc4n(c3)C[C@H](C)n3c-4nnc3C(F)(F)c3ccccc3F)n2)c(C)cn1` [Compound 294], the IC50 on MAPK1(ERK2) enzyme is greater than 10 nM; in assay [1], greater than 100 nM.

For `Cn1nccc1Nc1cc(-c2cc3n(c2)CCCn2c(Cc4c(F)cccc4Cl)nnc2-3)c(Cl)cn1` [Compound 33], the 50% inhibitory concentration (IC50) at MAPK1(ERK2) enzyme was greater than 10 nM; in assay [1] it was no more than 100 nM.

As to `Cc1cnc(Nc2ccnn2C)cc1-c1cc2n(c1)CCCn1c-2nnc1C1(C(F)(F)F)CC1` [Compound 233], the figures for the 50% inhibitory concentration (IC50) (on MAPK1(ERK2) enzyme; in assay [1]) were no more than 5 nM and no more than 100 nM, respectively.

Turning to `Cn1nccc1Nc1cc(-c2cc3n(c2)C[C@H](F)Cn2c-3nnc2C(F)(F)C(F)(F)F)c(Cl)cn1` [Compound 115], the values for the half-maximal inhibitory concentration (IC50) (on MAPK1(ERK2) enzyme; in assay [1]) were 5 to 10 nM and greater than 100 nM, respectively.

As to `Cc1cnc(Nc2ccnn2C)nc1-c1cc2n(c1)CCCn1c-2nnc1C1(C(F)(F)F)CCCC1` [Compound 28], the IC50 is no more than 5 nM on MAPK1(ERK2) enzyme and no more than 100 nM in assay [1].

Regarding `Cc1cnc(Nc2ccnn2C)cc1-c1cc2n(c1)C[C@H](C)n1c-2nnc1C(F)(F)c1ccccc1F` [Compound 83], the concentration for half-maximal inhibition (IC50) at MAPK1(ERK2) enzyme is greater than 10 nM; in assay [1] it was no more than 100 nM.

With `CC1CCn2c(nnc2C2(C(F)(F)F)CCC2)-c2cc(-c3cc(Nc4ccnn4C)ncc3Cl)cn21` (stereo not shown) [Compound 52], the 50% inhibitory concentration (IC50) at MAPK1(ERK2) enzyme was no more than 5 nM; in assay [1], no more than 100 nM.

On to `Cn1nccc1Nc1cc(-c2cc3n(c2)CC(F)(F)Cn2c(Cn4cc(F)cn4)nnc2-3)c(Cl)cn1` [Compound 106], for which the IC50 is no more than 5 nM at MAPK1(ERK2) enzyme and no more than 100 nM in assay [1].

Turning to `COC[C@H]1Cn2cc(-c3cc(Nc4ccnn4C)ncc3C)cc2-c2nnc(C(F)(F)c3ccccc3F)n21` [Compound 303], the IC50 was 5 to 10 nM at MAPK1(ERK2) enzyme and greater than 100 nM in assay [1].

For `Cc1cnc(Nc2ccnn2C)cc1-c1cc2n(c1)C(C)CCn1c-2nnc1C1(C(F)(F)F)CCC1` (stereo not shown) [Compound 77], the IC50 at MAPK1(ERK2) enzyme was no more than 5 nM; in assay [1] it was no more than 100 nM.

Regarding `Cn1nccc1Nc1cc(-c2cc3n(c2)C[C@H](CF)n2c-3nnc2C(F)(F)c2nccs2)c(Cl)cn1` [Compound 161], the IC50 at MAPK1(ERK2) enzyme is no more than 5 nM; in assay [1] it was no more than 100 nM.

Consider `Cn1nccc1Nc1cc(-c2cc3n(c2)C[C@H](C(F)F)n2c-3nnc2C(F)(F)c2ccccc2F)c(F)cn1` [Compound 196], for which the IC50 on MAPK1(ERK2) enzyme is 5 to 10 nM; in assay [1] it was no more than 100 nM.

For `COC[C@H]1Cn2cc(-c3nc(Nc4ccnn4C)ncc3C)cc2-c2nnc(C(F)(F)c3ccccc3Cl)n21` [Compound 202], the figures for the IC50 (at MAPK1(ERK2) enzyme; in assay [1]) were 5 to 10 nM and no more than 100 nM, respectively.

Consider `Cn1nccc1Nc1nccc(-c2cc3n(c2)CCn2c(COc4ccccc4F)nnc2-3)n1` [Compound 3], for which the IC50 at MAPK1(ERK2) enzyme is no more than 5 nM; in assay [1] it was no more than 100 nM.

With `Cc1cnc(Nc2ccnn2C(F)F)nc1-c1cc2n(c1)C[C@H](C)n1c-2nnc1C(F)(F)c1ccccc1F` [Compound 187], the concentration for half-maximal inhibition (IC50) was greater than 10 nM on MAPK1(ERK2) enzyme and no more than 100 nM in assay [1].

In the case of `C[C@H]1Cn2cc(-c3cc(Nc4ccnn4C)ncc3Cl)cc2-c2nnc(C(F)(F)c3ccccc3Cl)n21` [Compound 178], the IC50 is greater than 10 nM at MAPK1(ERK2) enzyme and no more than 100 nM in assay [1].

With `C[C@H]1Cn2cc(-c3ccnc(Nc4ccnn4C)n3)cc2-c2nnc(C(F)(F)c3ccccc3Cl)n21` [Compound 95], the figures for the IC50 (on MAPK1(ERK2) enzyme; in assay [1]) were 5 to 10 nM and no more than 100 nM, respectively.

With `Cc1cnc(Nc2ccnn2C)cc1-c1cc2n(c1)C[C@H](CF)n1c-2nnc1C(F)(F)c1noc2ccccc12` [Compound 197], the figures for the 50% inhibitory concentration (IC50) (on MAPK1(ERK2) enzyme; in assay [1]) were 5 to 10 nM and greater than 100 nM, respectively.

Turning to `Cn1nccc1Nc1cc(-c2cc3n(c2)CCCn2c(COC4(C(F)(F)F)CCC4)nnc2-3)c(Cl)cn1` [Compound 34], the values for the IC50 (on MAPK1(ERK2) enzyme; in assay [1]) were greater than 10 nM and greater than 100 nM, respectively.

As for `Cn1nccc1Nc1cc(-c2cc3n(c2)C[C@@H](O)Cn2c-3nnc2C2(C(F)(F)F)CCC2)c(Cl)cn1` [Compound 216], the half-inhibitory concentration (IC50) at MAPK1(ERK2) enzyme is no more than 5 nM; in assay [1], no more than 100 nM.

Take `C[C@H]1CCn2cc(-c3cc(Nc4ccnn4C)ncc3Cl)cc2-c2nnc(C3(CC(F)(F)F)CCC3)n21` [Compound 160]: the values for the half-inhibitory concentration (IC50) (at MAPK1(ERK2) enzyme; in assay [1]) were no more than 5 nM and no more than 100 nM, respectively.

In the case of `Cn1nccc1Nc1ncnc(-c2cc3n(c2)C[C@H](CF)n2c-3nnc2C(F)(F)c2ccccc2Cl)n1` [Compound 144], the 50% inhibitory concentration (IC50) is no more than 5 nM at MAPK1(ERK2) enzyme and no more than 100 nM in assay [1].

For the molecule `Cn1nccc1Nc1cc(-c2cc3n(c2)CC2(CC2)n2c-3nnc2C2(C(F)(F)F)CCC2)c(Cl)cn1` [Compound 259], the IC50 on MAPK1(ERK2) enzyme was 5 to 10 nM; in assay [1], no more than 100 nM.
